In ChEMBL document CHEMBL1141561, “A new series of neutral 5-substituted 4-anilinoquinazolines as potent, orally active inhibitors of erbB2 receptor tyrosine kinase” (Bioorg Med Chem Lett, 2008):
≈ marks a conversion by molar mass, not a printed value. One block for each compound: values may come before it.

Assays:
[1] = target: Voltage-gated inwardly rectifying potassium channel KCNH2 (Homo sapiens, UniProt Q12809)
[2] = Dissociation constant, pKa of the compound; assay type: physicochemical
[3] = target: T1, Receptor tyrosine-protein kinase erbB-2 (Homo sapiens, UniProt P04626); experiment: Inhibition of ebrB2 expressed in human MCF7 cells by autophosphorylation assay; assay type: cell-based
[4] = Fraction unbound ligand in Han Wistar rat plasma protein; assay type: ADME, cell-free
[5] = test system: Rattus norvegicus; experiment: Clearance in Han Wistar rat assessed as hepatic blood flow at 2 mg/kg, iv and 5 mg/kg, po; assay type: ADME, organism-based, Liver; details: in vivo
[6] = Fraction unbound ligand in Beagle dog at 0.2 mg/kg, iv and 0.4 mg/kg, po; assay type: ADME, organism-based, Canis lupus familiaris; details: in vivo
[7] = Solubility in aqueous phosphate buffer at pH 7.4 after 24 hrs; assay type: physicochemical
[8] = species: Mus musculus; experiment: animal or person; details: BT474c, po, 8 h, read-out: Inhibition
[9] = Partition coefficient, log D at pH 7.4; assay type: physicochemical; details: octanol/water
[10] = test system: Canis familiaris; experiment: Clearance in Beagle dog assessed as hepatic blood flow at 1 mg/kg, iv and 2 mg/kg, po; assay type: ADME, organism-based, Canis lupus familiaris, Liver; details: in vivo
[11] = Volume of distribution at steady state in Han Wistar rat at 2 mg/kg, iv and 5 mg/kg, po; assay type: ADME, organism-based; details: in vivo, read-out: Vdss
[12] = Volume of distribution at steady state in Beagle dog at 1 mg/kg, iv and 2 mg/kg, po; assay type: ADME, organism-based, Canis lupus familiaris; details: in vivo, read-out: Vdss
[13] = Bioavailability in Han Wistar rat at 2 mg/kg, iv and 5 mg/kg, po; assay type: ADME, organism-based; details: in vivo
[14] = Fraction unbound ligand in mouse plasma protein; assay type: ADME, cell-free
[15] = test system: KB; experiment: cells; details: Homo sapiens
[16] = species: Mus musculus; experiment: animal or person; details: BT474c, po, 1 h, read-out: Inhibition
[17] = target: Epidermal growth factor receptor (Homo sapiens, UniProt P00533)
[18] = Bioavailability in Beagle dog at 1 mg/kg, iv and 2 mg/kg, po; assay type: ADME, organism-based, Canis lupus familiaris; details: in vivo
[19] = species: Mus musculus; experiment: animal or person; details: BT474c, po, 8 h, read-out: Inhibition; remark: listed apart in the source
[20] = target: T1, Receptor tyrosine-protein kinase erbB-2; experiment: Inhibition of ebrB2
[21] = Bioavailability in Beagle dog at 0.2 mg/kg, iv and 0.4 mg/kg, po; assay type: ADME, organism-based, Canis lupus familiaris; details: in vivo
[22] = species: Mus musculus; experiment: animal or person; details: BT474c, po, 1 h, read-out: Inhibition; remark: listed apart in the source
[23] = cells; details: Homo sapiens, BT474c
[24] = Volume of distribution at steady state in Beagle dog at 0.2 mg/kg, iv and 0.4 mg/kg, po; assay type: ADME, organism-based, Canis lupus familiaris; details: in vivo, read-out: Vdss
[25] = test system: Canis familiaris; experiment: Clearance in Beagle dog assessed as hepatic blood flow at 0.2 mg/kg, iv and 0.4 mg/kg, po; assay type: ADME, organism-based, Canis lupus familiaris, Liver; details: in vivo
[26] = Bioavailability in Han Wistar rat at 0.4 mg/kg, iv and 1 mg/kg, po; assay type: ADME, organism-based; details: in vivo
[27] = test system: Rattus norvegicus; experiment: Clearance in Han Wistar rat assessed as hepatic blood flow at 0.4 mg/kg, iv and 1 mg/kg, po; assay type: ADME, organism-based, Liver; details: in vivo
[28] = Volume of distribution at steady state in Han Wistar rat at 0.4 mg/kg, iv and 1 mg/kg, po; assay type: ADME, organism-based; details: in vivo, read-out: Vdss

Sequence of Epidermal growth factor receptor (P00533 whole entry): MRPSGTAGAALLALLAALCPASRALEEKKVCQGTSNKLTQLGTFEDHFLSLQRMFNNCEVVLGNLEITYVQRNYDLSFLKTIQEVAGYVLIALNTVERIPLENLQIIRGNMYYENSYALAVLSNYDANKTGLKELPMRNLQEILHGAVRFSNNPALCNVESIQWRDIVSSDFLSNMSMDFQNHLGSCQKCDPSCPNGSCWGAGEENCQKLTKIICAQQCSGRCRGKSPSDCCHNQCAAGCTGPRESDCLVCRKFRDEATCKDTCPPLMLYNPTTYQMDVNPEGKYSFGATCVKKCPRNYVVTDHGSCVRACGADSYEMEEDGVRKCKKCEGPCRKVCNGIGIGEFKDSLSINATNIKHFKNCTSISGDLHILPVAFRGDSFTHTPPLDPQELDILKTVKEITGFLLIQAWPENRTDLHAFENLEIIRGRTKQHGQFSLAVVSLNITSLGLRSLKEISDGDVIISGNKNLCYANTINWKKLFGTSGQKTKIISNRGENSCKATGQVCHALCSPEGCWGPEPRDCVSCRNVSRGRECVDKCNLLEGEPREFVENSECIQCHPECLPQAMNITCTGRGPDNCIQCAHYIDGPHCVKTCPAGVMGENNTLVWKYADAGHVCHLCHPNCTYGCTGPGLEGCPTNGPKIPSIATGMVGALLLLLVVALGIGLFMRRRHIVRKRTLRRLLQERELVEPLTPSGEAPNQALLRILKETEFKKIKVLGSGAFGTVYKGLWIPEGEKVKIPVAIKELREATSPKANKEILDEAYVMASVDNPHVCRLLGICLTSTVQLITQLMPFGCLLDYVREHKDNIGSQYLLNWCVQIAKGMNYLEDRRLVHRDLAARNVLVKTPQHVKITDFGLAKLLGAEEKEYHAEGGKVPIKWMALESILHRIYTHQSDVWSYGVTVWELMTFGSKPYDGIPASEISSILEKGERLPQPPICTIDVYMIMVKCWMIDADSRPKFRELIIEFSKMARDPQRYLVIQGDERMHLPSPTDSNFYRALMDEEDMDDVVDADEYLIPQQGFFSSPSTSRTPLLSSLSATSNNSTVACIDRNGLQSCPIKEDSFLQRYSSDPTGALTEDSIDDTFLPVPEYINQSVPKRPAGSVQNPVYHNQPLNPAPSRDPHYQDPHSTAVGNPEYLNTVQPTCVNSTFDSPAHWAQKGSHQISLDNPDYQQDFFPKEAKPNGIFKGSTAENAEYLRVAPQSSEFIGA
Sequence of Voltage-gated inwardly rectifying potassium channel KCNH2 (Q12809 whole entry): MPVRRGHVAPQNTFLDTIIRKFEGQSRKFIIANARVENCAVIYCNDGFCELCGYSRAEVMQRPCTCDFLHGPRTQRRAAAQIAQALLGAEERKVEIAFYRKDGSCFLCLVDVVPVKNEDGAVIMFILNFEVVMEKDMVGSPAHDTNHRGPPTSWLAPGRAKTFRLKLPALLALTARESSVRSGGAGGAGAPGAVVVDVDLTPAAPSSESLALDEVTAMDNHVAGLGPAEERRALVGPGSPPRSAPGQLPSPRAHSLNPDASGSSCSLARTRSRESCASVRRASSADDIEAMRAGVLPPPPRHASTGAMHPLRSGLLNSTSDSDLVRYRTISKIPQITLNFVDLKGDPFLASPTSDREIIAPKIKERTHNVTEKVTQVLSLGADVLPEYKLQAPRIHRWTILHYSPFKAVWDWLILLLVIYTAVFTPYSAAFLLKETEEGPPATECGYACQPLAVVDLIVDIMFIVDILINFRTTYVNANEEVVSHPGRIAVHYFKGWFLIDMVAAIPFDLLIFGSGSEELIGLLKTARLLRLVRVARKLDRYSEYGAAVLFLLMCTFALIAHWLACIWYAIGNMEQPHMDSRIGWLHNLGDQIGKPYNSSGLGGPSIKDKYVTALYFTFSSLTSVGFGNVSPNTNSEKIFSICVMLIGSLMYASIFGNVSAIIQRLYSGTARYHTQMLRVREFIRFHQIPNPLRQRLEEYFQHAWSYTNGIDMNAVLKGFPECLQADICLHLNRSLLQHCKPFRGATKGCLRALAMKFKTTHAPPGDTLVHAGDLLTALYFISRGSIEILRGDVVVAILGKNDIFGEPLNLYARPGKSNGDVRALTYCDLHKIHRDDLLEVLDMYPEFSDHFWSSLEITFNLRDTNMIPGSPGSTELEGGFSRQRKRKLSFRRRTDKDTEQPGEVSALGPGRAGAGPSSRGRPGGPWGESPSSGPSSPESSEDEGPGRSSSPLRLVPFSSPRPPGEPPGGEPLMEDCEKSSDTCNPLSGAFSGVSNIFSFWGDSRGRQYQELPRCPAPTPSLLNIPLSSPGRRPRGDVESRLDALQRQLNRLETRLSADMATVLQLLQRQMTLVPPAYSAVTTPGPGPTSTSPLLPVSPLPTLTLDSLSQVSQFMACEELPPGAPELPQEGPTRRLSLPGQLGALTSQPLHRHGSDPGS
T1 sequence (P04626 whole entry): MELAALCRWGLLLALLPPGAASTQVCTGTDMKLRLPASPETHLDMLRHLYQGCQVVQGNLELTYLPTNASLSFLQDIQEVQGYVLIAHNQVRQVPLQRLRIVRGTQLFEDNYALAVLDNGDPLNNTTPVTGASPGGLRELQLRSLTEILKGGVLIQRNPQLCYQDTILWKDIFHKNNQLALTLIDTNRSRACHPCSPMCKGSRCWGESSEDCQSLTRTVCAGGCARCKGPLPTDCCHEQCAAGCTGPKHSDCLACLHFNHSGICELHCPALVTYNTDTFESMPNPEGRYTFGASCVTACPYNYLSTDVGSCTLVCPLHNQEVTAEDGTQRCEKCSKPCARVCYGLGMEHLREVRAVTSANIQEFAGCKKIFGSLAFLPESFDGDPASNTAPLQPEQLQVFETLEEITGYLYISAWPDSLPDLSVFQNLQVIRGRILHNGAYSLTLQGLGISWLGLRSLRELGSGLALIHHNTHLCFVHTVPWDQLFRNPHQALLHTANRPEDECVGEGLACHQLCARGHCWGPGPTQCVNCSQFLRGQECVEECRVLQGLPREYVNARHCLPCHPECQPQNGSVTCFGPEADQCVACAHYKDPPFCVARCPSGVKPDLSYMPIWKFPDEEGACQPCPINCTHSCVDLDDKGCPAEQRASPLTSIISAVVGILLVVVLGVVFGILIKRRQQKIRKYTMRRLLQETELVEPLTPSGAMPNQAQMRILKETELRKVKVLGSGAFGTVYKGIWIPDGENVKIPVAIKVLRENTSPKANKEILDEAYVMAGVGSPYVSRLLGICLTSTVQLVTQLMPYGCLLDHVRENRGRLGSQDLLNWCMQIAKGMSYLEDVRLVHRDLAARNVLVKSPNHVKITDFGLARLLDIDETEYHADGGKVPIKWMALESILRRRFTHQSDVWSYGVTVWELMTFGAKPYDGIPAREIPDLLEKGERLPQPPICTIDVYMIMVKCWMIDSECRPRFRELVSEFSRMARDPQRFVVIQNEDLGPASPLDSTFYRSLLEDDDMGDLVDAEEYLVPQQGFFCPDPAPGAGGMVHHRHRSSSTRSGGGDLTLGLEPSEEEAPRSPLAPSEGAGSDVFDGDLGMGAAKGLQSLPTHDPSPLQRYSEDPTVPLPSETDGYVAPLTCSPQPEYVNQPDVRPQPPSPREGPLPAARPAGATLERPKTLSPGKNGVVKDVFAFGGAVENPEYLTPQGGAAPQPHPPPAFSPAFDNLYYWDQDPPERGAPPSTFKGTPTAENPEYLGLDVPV

SMILES: Cc1ccc(Oc2ccc(Nc3ncnc4cccc(OCC(=O)N(C)CCO)c34)cc2C)cn1
- IC50 [3]: 130 nM

SMILES: C[C@H](Oc1cccc2ncnc(Nc3ccc(OCc4ccccn4)c(Cl)c3)c12)C(=O)N(C)C
- IC50 [1]: 10000 nM
- IC50 [3]: 43 nM

SMILES: C[C@H](Oc1cccc2ncnc(Nc3ccc(OCc4ccccn4)c(Cl)c3)c12)C(=O)N(C)CCO
- IC50 [3]: 79 nM

SMILES: Cc1ccc(Oc2ccc(Nc3ncnc4cccc(O[C@H](C)C(=O)N(C)C)c34)cc2C)cn1
- fraction unbound [4]: 0.017
- %hepatic blood flow [5]: 12%
- fraction unbound [6]: 0.025
- solubility at 24 h [7]: 28 µM (≈ 12.8 µg/mL)
- IC50 [1]: 8000 nM
- inhibition in vivo at 100 mg/kg [8]: 55%
- logD [9]: > 4.3
- %hepatic blood flow [10]: 48%
- Vd [11]: 0.9 L/kg
- Vd [12]: 1.8 L/kg
- bioavailability [13]: 67%
- fraction unbound [14]: 0.011
- IC50 [15]: 2700 nM
- inhibition in vivo at 100 mg/kg [16]: 37%
- IC50 [17]: 1100 nM
- bioavailability [18]: 47%

SMILES: COCCN(C)C(=O)[C@@H](C)Oc1cccc2ncnc(Nc3ccc(Oc4ccc(C)nc4)c(C)c3)c12
- IC50 [3]: 120 nM

SMILES: C[C@@H](Oc1cccc2ncnc(Nc3ccc(OCc4ccccn4)c(Cl)c3)c12)C(=O)N(C)CCO
- IC50 [3]: 31 nM

SMILES: CN1CCN(C(=O)COc2cccc3ncnc(Nc4ccc(OCc5ccccn5)c(Cl)c4)c23)CC1
- IC50 [3]: 350 nM

SMILES: CN(CCO)C(=O)COc1cccc2ncnc(Nc3ccc(OCc4ccccn4)c(Cl)c3)c12
- IC50 [3]: 120 nM

SMILES: Cc1ccc(Oc2ccc(Nc3ncnc4cccc(O[C@H](C)C(=O)NCCO)c34)cc2C)cn1
- IC50 [3]: 200 nM

SMILES: NC(=O)COc1cccc2ncnc(Nc3ccc(OCc4ccccn4)c(Cl)c3)c12
- IC50 [3]: 180 nM

SMILES: Cc1ccc(Oc2ccc(Nc3ncnc4cccc(O[C@H](C)C(=O)N5CCOCC5)c34)cc2Cl)cn1
- IC50 [3]: 27 nM

SMILES: C[C@@H](Oc1cccc2ncnc(Nc3ccc(OCc4ccccn4)c(Cl)c3)c12)C(=O)N(C)C
- fraction unbound [4]: 0.004
- IC50 [20]: < 1 nM
- bioavailability [26]: 75%
- fraction unbound [6]: 0.011
- solubility at 24 h [7]: 6 µM (≈ 2.87 µg/mL)
- IC50 [1]: 14000 nM
- bioavailability [21]: 89%
- IC50 [3]: 34 nM
- %hepatic blood flow [27]: 4.3%
- logD [9]: 3.7
- IC50 [23]: 100 nM
- Vd [24]: 1 L/kg
- IC50 [15]: 1000 nM
- Vd [28]: 0.5 L/kg
- %hepatic blood flow [25]: 24%
- IC50 [17]: 22 nM

SMILES: Cc1ccc(Oc2ccc(Nc3ncnc4cccc(O[C@@H](C)C(=O)N(C)C)c34)cc2C)cn1
- IC50 [1]: 11000 nM

Second part, led by results:

- pKa [2]: 8.1
SMILES: CN1CCC(Oc2cccc3ncnc(Nc4ccc(OCc5ccccn5)c(Cl)c4)c23)CC1
- IC50 [1]: 5000 nM

- fraction unbound [4]: 0.029
- %hepatic blood flow [5]: 23%
- IC50 [20]: 2 nM
- fraction unbound [6]: 0.038
- solubility at 24 h [7]: 66 µM (≈ 32.2 µg/mL)
- bioavailability [21]: 33%
- IC50 [3]: 69 nM
- logD [9]: 3.8
- Vd [11]: 1 L/kg
- IC50 [23]: 270 nM
- bioavailability [13]: 34%
- fraction unbound [14]: 0.025
- Vd [24]: 0.9 L/kg
- IC50 [15]: 23000 nM
- %hepatic blood flow [25]: 34%
- IC50 [17]: 2000 nM
SMILES: Cc1ccc(Oc2ccc(Nc3ncnc4cccc(O[C@H](C)C(=O)N(C)CCO)c34)cc2C)cn1
- inhibition in vivo at 100 mg/kg [19]: 36%
- inhibition in vivo at 100 mg/kg [22]: 78%

- IC50 [3]: 140 nM
SMILES: O=C(COc1cccc2ncnc(Nc3ccc(OCc4ccccn4)c(Cl)c3)c12)N1CCOCC1

- IC50 [3]: 22 nM
SMILES: Cc1ccc(Oc2ccc(Nc3ncnc4cccc(O[C@H](C)C(=O)N5CCOCC5)c34)cc2C)cn1

- IC50 [3]: 66 nM
SMILES: CNC(=O)[C@@H](C)Oc1cccc2ncnc(Nc3ccc(OCc4ccccn4)c(Cl)c3)c12
- IC50 [1]: 32000 nM

- IC50 [3]: 19 nM
SMILES: C[C@@H](Oc1cccc2ncnc(Nc3ccc(OCc4ccccn4)c(Cl)c3)c12)C(=O)N1CCOCC1
- IC50 [1]: 10000 nM

- IC50 [3]: 23 nM
SMILES: COc1cc(Nc2ncnc3cccc(O[C@H](C)C(=O)N4CCOCC4)c23)ccc1Oc1ccc(C)nc1

- IC50 [3]: 35 nM
SMILES: Cc1ccc(Oc2ccc(Nc3ncnc4cccc(O[C@@H](C)C(=O)N5CCOCC5)c34)cc2C)cn1

- IC50 [3]: 78 nM
SMILES: Cc1ccc(Oc2ccc(Nc3ncnc4cccc(O[C@@H](C)C(=O)N(C)CCO)c34)cc2C)cn1
